Reference: ChEMBL document CHEMBL6127080, “Design, synthesis and biological evaluation of novel diphenylamine analogues as NLRP3 inflammasome inhibitors” (Bioorg Med Chem, 2024)

Assays:
[1] = molecular target: NACHT, LRR and PYD domains-containing protein 3 (Mus musculus) (UniProt Q8R4B8); test: Inhibition of NLRP3 inflammasome activation in mouse […] cells assessed as reduction in LPS/ATP-induced IL-1 beta release at 1 uM pretreated with LPS for 4.5 hrs followed by compound addition for 30 mins prior to ATP addition and measured after 30 mins by ELISA relative to control; assay type: cell-based; settings: J774.A1, time 5.5 hrs
[2] = molecular target: NACHT, LRR and PYD domains-containing protein 3 (Mus musculus) (UniProt Q8R4B8); test: Inhibition of NLRP3 inflammasome activation in mouse […] cells assessed as reduction in LPS/ATP-induced IL-1 beta release at 10 uM pretreated with LPS for 4.5 hrs followed by compound addition for 30 mins prior to ATP addition and measured after 30 mins by ELISA relative to control; assay type: cell-based; settings: J774.A1, time 5.5 hrs
[3] = molecular target: NACHT, LRR and PYD domains-containing protein 3 (Mus musculus, UniProt Q8R4B8); test: Inhibition of NLRP3 inflammasome activation in mouse […] cells assessed as reduction in LPS/ATP-induced IL-1 beta release pretreated with LPS for 4.5 hrs followed by compound addition for 30 mins prior to ATP addition and measured after 30 mins by ELISA; assay type: cell-based, J774.A1
[4] = Cytotoxicity against mouse J774.A1 cells; assay type: toxicity, cell-based
[5] = Stability in rat plasma incubated measured upto 48 hrs by HPLC method; assay type: ADME, cell-free
[6] = Stability in rat liver homogenate incubated measured upto 48 hrs by HPLC method; assay type: ADME, tissue-based; settings: tissue homogenate
J774.A1 = test: Cytotoxicity against mouse J774.A1 cells at 50 uM; assay type: toxicity, cell-based; settings: j774.a1, 5.5 h

NACHT, LRR and PYD domains-containing protein 3 (Mus musculus), sequence (Q8R4B8 whole entry, the tested form may be a part): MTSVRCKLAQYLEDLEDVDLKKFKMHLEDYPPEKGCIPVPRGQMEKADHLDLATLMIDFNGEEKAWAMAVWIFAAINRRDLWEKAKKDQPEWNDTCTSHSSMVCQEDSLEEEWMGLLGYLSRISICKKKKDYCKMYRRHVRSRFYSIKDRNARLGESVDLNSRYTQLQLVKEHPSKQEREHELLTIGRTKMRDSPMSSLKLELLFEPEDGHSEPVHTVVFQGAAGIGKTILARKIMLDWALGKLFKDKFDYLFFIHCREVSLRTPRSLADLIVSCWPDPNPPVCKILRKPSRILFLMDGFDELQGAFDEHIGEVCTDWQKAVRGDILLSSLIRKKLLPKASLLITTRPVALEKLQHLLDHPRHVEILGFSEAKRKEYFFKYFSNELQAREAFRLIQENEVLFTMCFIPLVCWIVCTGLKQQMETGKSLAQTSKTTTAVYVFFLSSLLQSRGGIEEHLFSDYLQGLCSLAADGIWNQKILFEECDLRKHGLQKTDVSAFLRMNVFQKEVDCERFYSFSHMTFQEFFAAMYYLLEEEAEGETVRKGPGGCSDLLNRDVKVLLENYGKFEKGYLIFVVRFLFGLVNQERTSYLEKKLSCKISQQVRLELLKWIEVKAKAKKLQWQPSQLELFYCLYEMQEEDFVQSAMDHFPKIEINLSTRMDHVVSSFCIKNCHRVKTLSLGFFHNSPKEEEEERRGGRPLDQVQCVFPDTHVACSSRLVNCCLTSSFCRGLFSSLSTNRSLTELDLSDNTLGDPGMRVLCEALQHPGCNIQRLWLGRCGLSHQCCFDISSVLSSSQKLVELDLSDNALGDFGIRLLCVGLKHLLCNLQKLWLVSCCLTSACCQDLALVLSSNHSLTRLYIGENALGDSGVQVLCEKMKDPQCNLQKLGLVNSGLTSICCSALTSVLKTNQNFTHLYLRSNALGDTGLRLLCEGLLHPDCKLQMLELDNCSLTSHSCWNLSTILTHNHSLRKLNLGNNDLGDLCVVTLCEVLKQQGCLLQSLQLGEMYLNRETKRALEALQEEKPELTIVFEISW
NACHT, LRR and PYD domains-containing protein 3, sequence (Q8R4B8 whole entry, the tested form may be a part): as above

inhibition [1] | inhibition [2] | Compound | also measured
29.2% | 78.4% | CCNC(=S)Nc1ccc(-c2ccccc2N(Cc2cc(Cl)ccc2OCCOC)C(=O)Cc2ccsc2)cc1 | –
27.5% | 42.5% | CCS(=O)(=O)Nc1ccc(-c2ccccc2N(Cc2cc(Cl)ccc2OCCOC)C(=O)Cc2ccsc2)cc1 | –
67.5% | 81.8% | CCCCCC(=O)Nc1ccc(-c2ccccc2N(Cc2cc(Cl)ccc2OCCOC)C(=O)Cc2ccsc2)cc1 | IC50 [3]: 590 nM
53.9% | 68.2% | CCCC(=O)Nc1ccc(-c2ccccc2N(Cc2cc(Cl)ccc2OCCOC)C(=O)Cc2ccsc2)cc1 | IC50 [3]: 1030 nM
56.9% | 84.4% | CCNC(=O)Nc1ccc(-c2ccccc2N(Cc2cc(Cl)ccc2OCCOC)C(=O)Cc2ccsc2)cc1 | –
-0.88% | 49.6% | C#CCCCC(=O)Nc1ccc(-c2ccccc2N(Cc2cc(Cl)ccc2OCCOC)C(=O)Cc2ccsc2)cc1 | –
72.3% | 92.5% | CCC(=O)Nc1ccc(-c2ccccc2N(Cc2cc(Cl)ccc2OCCOC)C(=O)Cc2ccsc2)cc1 | IC50 [3]: 850 nM
11.1% | 85.4% | COCCOc1ccc(Cl)cc1CN(C(=O)Cc1ccsc1)c1ccccc1-c1ccc(NC(=O)C(C)C)cc1 | –
24.5% | 72.1% | C=CC(=O)Nc1ccc(-c2ccccc2N(Cc2cc(Cl)ccc2OCCOC)C(=O)Cc2ccsc2)cc1 | –
1.56% | 33.9% | COCCOc1ccc(Cl)cc1CN(C(=O)Cc1ccsc1)c1ccccc1-c1ccc(NC(C)=O)cc1 | –
42.7% | 83.8% | CCC(=O)Nc1ccc(-c2ccccc2N(Cc2cc(F)ccc2OCCOC)C(=O)Cc2ccsc2)cc1 | –
27.8% | 63.9% | COCCOc1ccc(Cl)cc1CN(C(=O)Cc1ccsc1)c1ccccc1-c1ccc(NC(=O)C2CC2)cc1 | –
73% | 90.5% | COCCOc1ccc(Cl)cc1CN(C(=O)Cc1ccsc1)c1ccccc1-c1ccc(NC(=O)CBr)cc1 | IC50 [3]: 310 nM; Activity (J774.A1): > 97%

Continued, molecule first:

Compound | inhibition [1] | inhibition [2] | also measured
CC(C)(O)c1coc(S(=O)(=O)NC(=O)Nc2c3c(cc4c2CCC4)CCC3)c1 | – | – | IC50 [3]: 15 nM
COCCOc1ccc(Cl)cc1CN(C(=O)Cc1ccsc1)c1ccccc1-c1ccc(NC(=O)Cc2ccccc2)cc1 | 44.5% | 84.3% | –
COCCOc1ccc(Cl)cc1CN(C(=O)Cc1ccsc1)c1ccccc1-c1ccc(NC(=O)OCc2ccccc2)cc1 | 10.6% | 54.4% | –
CCCS(=O)(=O)Nc1ccc(-c2ccccc2N(Cc2cc(Cl)ccc2OCCOC)C(=O)Cc2ccsc2)cc1 | 31.4% | 61.1% | –
CCC(=O)Nc1ccc(-c2ccccc2N(Cc2cc(Cl)ccc2OCCOC)C(=O)c2ccc(F)cc2)cc1 | – | – | IC50 [3]: 340 nM; IC50 [4]: 50000 nM; Stability [5]: Stable; Stability [6]: Stable
CCC(=O)Nc1ccc(-c2ccccc2N(Cc2cc(Cl)ccc2OCCOC)C(=O)Cc2ccc(F)cc2)cc1 | 76.7% | 93.5% | IC50 [3]: 650 nM
CCCS(=O)(=O)Nc1ccc(-c2ccccc2N(Cc2cc(Cl)ccc2OCCOC)C(=O)c2ccc(F)cc2)cc1 | 58.9% | 67.6% | –
COCCOc1ccc(Cl)cc1CN(C(=O)Cc1ccsc1)c1ccccc1-c1ccc(NC(=O)C2CCCCC2)cc1 | -2.37% | 39.5% | –
CCC(=O)Nc1ccc(-c2ccccc2N(Cc2ccc(C(F)(F)F)cc2)C(=O)c2ccc(F)cc2)cc1 | 49.7% | 82.1% | –
COCCOc1ccc(Cl)cc1CN(C(=O)Cc1ccsc1)c1ccccc1-c1ccc(NC(=O)/C=C/c2ccccc2)cc1 | 11.9% | 36.7% | –
CCCCS(=O)(=O)Nc1ccc(-c2ccccc2N(Cc2cc(Cl)ccc2OCCOC)C(=O)Cc2ccsc2)cc1 | 51.5% | 73.7% | –
CCCC(CCC)C(=O)Nc1ccc(-c2ccccc2N(Cc2cc(Cl)ccc2OCCOC)C(=O)Cc2ccsc2)cc1 | 28.6% | 58.1% | –
CCC(=O)Nc1ccc(-c2ccccc2N(Cc2cc(Cl)ccc2OCCOC)C(=O)c2c(F)c(F)c(F)c(F)c2F)cc1 | 39.7% | 23.6% | –
COCCOc1ccc(Cl)cc1CN(C(=O)Cc1ccsc1)c1ccccc1-c1ccc(NC(=O)[C@@H]2CCC(=O)N2)cc1 | 54.1% | 84.5% | IC50 [3]: 860 nM
CCC(=O)Nc1ccc(-c2ccccc2N(Cc2ccc(F)cc2)C(=O)c2ccc(F)cc2)cc1 | 40.5% | 39.6% | –
CCCCCC(=O)Nc1ccc(-c2ccccc2N(Cc2cc(Cl)ccc2OCCOC)C(=O)c2ccc(F)cc2)cc1 | 7.12% | 45.4% | –
CCS(=O)(=O)Nc1ccc(-c2ccccc2N(Cc2cc(Cl)ccc2OCCOC)C(=O)c2ccc(F)cc2)cc1 | 55.4% | 68.2% | –
CCC(=O)Nc1ccc(-c2ccccc2N(Cc2cc(Cl)ccc2OCCOC)C(=O)c2cc(F)c(F)c(F)c2)cc1 | 52.5% | 77.4% | –
CCC(=O)Nc1ccc(-c2ccccc2N(Cc2cc(Cl)ccc2OCCOC)C(=O)c2ccc(F)c(F)c2)cc1 | 36.1% | 27.7% | –
CCC(=O)Nc1ccc(-c2ccccc2N(Cc2cc(Cl)ccc2OCC(C)(F)F)C(=O)Cc2ccsc2)cc1 | 70.1% | 89.9% | IC50 [3]: 550 nM
CCC(=O)Nc1ccc(-c2ccccc2N(Cc2cc(F)ccc2OCC(C)(F)F)C(=O)Cc2ccsc2)cc1 | 27.8% | 74.8% | –
